Assays:
[1] = target: T1, porcine pancreatic lipase (Sus scrofa, UniProt P00591); experiment: In vitro hydrolysis by porcine pancreatic lipase in simulated intestinal micellar solution; format: in vitro ADME; settings: for In vitro hydrolysis: acid intermediates: HPLC-MS; for In vitro hydrolysis: conversion to monoglyceride form / In vitro hydrolysis: fate of the monoglyceride: simulated intestinal micellar solution, 37° C., 0-180 min
T1 construct: dispersion of 1 g porcine pancreatin in 5 ml of lipolysis buffer; from tissue; host or cells: porcine pancreatin (pancreas extract), supernatant after centrifugation
T1 sequence (P00591 1-450): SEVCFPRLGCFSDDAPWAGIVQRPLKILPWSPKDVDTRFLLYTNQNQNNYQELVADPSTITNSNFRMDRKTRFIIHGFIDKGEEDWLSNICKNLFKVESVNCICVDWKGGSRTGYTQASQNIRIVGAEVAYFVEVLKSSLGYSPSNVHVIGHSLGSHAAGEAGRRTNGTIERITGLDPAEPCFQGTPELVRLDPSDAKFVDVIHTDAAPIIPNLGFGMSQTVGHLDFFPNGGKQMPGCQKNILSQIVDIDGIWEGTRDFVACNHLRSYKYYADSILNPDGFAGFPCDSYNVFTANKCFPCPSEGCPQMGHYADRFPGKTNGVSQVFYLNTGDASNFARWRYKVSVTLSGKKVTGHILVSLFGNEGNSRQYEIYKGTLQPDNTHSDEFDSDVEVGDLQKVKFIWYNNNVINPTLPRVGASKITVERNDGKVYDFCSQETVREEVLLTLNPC
T1 sequence (P02703 23-112 partner): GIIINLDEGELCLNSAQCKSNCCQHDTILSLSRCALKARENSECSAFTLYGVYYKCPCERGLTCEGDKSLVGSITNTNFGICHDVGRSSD
Experimental: Hydrolysis of test compounds in vitro was performed via incubation with porcine pancreatic lipase. This provides a more reproducible source of pancreatic enzymes, facilitates enhanced experimental throughput, and is also a greater challenge than collected rat enzymes (as described below, since enzyme activity in rat intestinal fluid is low). Briefly, pancreatic lipase solution was prepared prior to the hydrolysis experiment by dispersion of 1 g porcine pancreatin in 5 ml of lipolysis buffer and 16.9 μL of 0.5 M NaOH. The suspension was mixed well and centrifuged at 3500 rpm for 15 minutes at 5° C. to provide a supernatant. An amount of 1000 mL of lipolysis buffer was prepared with 0.474 g of tris-maleate (2 mM), 0.206 g of CaCl2·H2O (1.4 mM) and 8.775 g of NaCl (150 mM) adjusted with NaOH to pH 6.5. To assess the potential for prodrug hydrolysis in the intestine, 20 μL of prodrug solution (1 mg/mL dissolved in acetonitrile), 900 μL of simulated intestinal micellar solution [prepared with 0.783 g of NaTDC (3 mM) and 0.291 g of phosphatidyl choline (0.75 mM) in 500 mL lipolysis buffer] and 100 μL of enzyme solution were incubated at 37° C. 20 μL samples of the incubation solution were taken at 0, 5, 10, 15, 30, 60, 90, 120 and 180 minutes post incubation and added to 180 μL of MeCN to stop lipolysis. The mixture was vortexed and centrifuged at 5000 rpm for 5 minutes to precipitate proteins prior to analysis. The supernatant was analyzed by HPLC-MS for residual compound concentrations, and the potential products of compound hydrolysis analyzed.
On incubation with digestive enzymes, the monoglyceride forms of the prodrugs are formed very rapidly. The stability in simulated intestinal conditions is therefore better assessed by the stability of the monoglyceride form that is generated by the initial digestion process. The monoglyceride form should remain intact to be absorbed and re-esterified in the enterocyte prior to entry into the lymphatics. A comparison of the stability profiles of the monoglyceride forms of test compounds during in vitro incubation with porcine pancreatic lipase (or freshly collected rat bile and pancreatic fluid (BPF), as described below) was used to evaluate the influence of linker structure on the stability of the monoglyceride intermediates.

[2] = test system: plasma supplemented with lipoprotein lipase (LPL); experiment: In vitro release of therapeutic agent from prodrugs in plasma supplemented with lipoprotein lipase; format: in vitro ADME; settings: rat and/or human plasma supplemented with LPL; for In vitro hydrolysis profile: conversion to monoglyceride form / In vitro hydrolysis profile: further conversion products: 37° C., 0-180 min
Experimental: In order to probe the release of free drug from TG prodrugs in the systemic circulation, prodrugs are incubated with plasma (rat, mouse, dog, pig or human) supplemented with lipoprotein lipase (LPL, 200 IU/ml). LPL is a key enzyme required for the hydrolysis of lipoprotein associated TG in the systemic circulation and is therefore expected to be a key contributor to lipolysis of the re-esterified drug-TG construct in plasma, largely via liberation of fatty acids in the sn-1 and the sn-3 position of the TG-mimetic, prior to drug release from the 2′ position via esterase hydrolysis. […] is tethered to the luminal surface of vascular endothelial cells under physiological conditions. In the current in vitro studies, plasma is therefore supplemented with LPL to better reflect the in vivo situation.
To start hydrolysis, 10 μl of LPL solution (10,000 IU/ml) was added to a mixture of 10 μl of prodrug solution (1 mg/ml dissolved in acetonitrile) and 500 μl of blank plasma. The mixture was incubated at 37° C. Samples (20 μl) of the incubation solution were taken at 0, 5, 15, 30, 60, 90, 120 and 180 minutes post-incubation and added to 180 μl of MeCN to stop lipolysis. The mixture was vortexed and centrifuged at 4500×g for 5 minutes to precipitate proteins prior to analysis. The supernatant was analyzed by HPLC-MS/MS for the potential products (MG form, acid form, and free drug) of prodrug hydrolysis.
The in vitro hydrolysis profile of selected prodrug compounds was determined in rat and/or human plasma supplemented with LPL. […] The acid intermediate was not observed for prodrug I-5. The acid intermediates are believed to have the structures shown in Table 6, below, based on HPLC-MS data.

[3] = Lymphatic transport assay in mesenteric lymph-duct cannulated rats; format: in vivo, rat; settings: total tofacitinib related compound (lymph hydrolysed before assay), intraduodenal infusion, anaesthetised mesenteric lymph-duct cannulated rats, lymph collected up to 8 h
Experimental: In order to assess the lymphatic transport of disclosed lipid prodrugs in rats, the mesenteric lymph ducts of the rats used in this study were cannulated to allow continual collection of mesenteric lymph. Lipid formulations containing the compound of interest were then administered to the animals, lymph was collected, and drug concentrations in the lymph samples were quantified.
Lipid-based formulations of the compounds of the invention or control compounds were prepared as previously described (Trevaskis, N. L. et al., Pharmaceutical Research, 2005, 22(11), 1863-1870, WO 2016/023082, and WO 2017/041139, hereby incorporated by reference).
In brief, either 1 or 2 mg of test prodrug, 40 mg oleic acid and 25 mg Tween 80 were mixed in a glass vial and incubated at 37° C. for 12-18 h to equilibrate. An aqueous phase consisting of 5.6 ml phosphate buffered saline (PBS, pH 7.4) was subsequently added to the lipid phase (tofacitinib was dissolved in PBS for the preparation of tofacitinib-containing formulations) and the formulation emulsified by ultrasonication with a Misonix XL 2020 ultrasonic processor (Misonix, Farmingdale, NY, USA) equipped with a 3.2-mm microprobe tip running at 30% of the maximal amplitude of 240 μm and a frequency of 20 kHz for 2 min at room temperature. Doses for administering to more than one animal can be prepared in one batch by suitably increasing the quantities given above. Drug/prodrug concentrations in all formulations were verified using HPLC-MS.
Male Sprague-Dawley (SD) rats were selected for the lymphatic transport studies. Rats (typically 240-320 g) were maintained on a standard diet and fasted overnight with free access to water prior to experiments.
Anesthetized rats were placed on a heated pad at 37° C. and cannulas inserted into the duodenum (for formulation administration and rehydration), mesenteric lymph duct (for lymph collection), and carotid artery (in cases where blood collection was conducted). Post-surgery, rats were re-hydrated for 0.5 h via intraduodenal infusion of normal saline at 2.8 mL/h. The lipid formulations were infused into the duodenum at 2.8 mL/h for 2 h after which, normal saline was infused at 2.8 mL/h for the remainder of the experiment. Lymph was continuously collected for up to 8 h into pre-weighed Eppendorf tubes containing 10 μL of 1,000 IU/mL heparin. The collection tubes were changed hourly and lymph flow was measured gravimetrically. Aliquots of hourly lymph samples were stored at −20° C. prior to assay.
For most compounds, drug concentration in lymph is expressed as total drug and includes free drug and drug associated with different glycerides. Lymph samples were first treated with a lipase or other appropriate conditions to liberate free active agent prior to measurement of active agent levels in the lymph. Treatment with a lipase or other hydrolysis conditions liberates free active agent from any corresponding re-esterified glycerides. Porcine pancreatic lipase is appropriate for this purpose. Alternatively, hydrolysis with 0.5 M NaOH may be used.
For certain compounds, drug concentration was measured for the intact lipid prodrug specifically, without exposing the lymph samples to hydrolysis conditions.
Transport of compounds into lymph during each hourly collection period was calculated from the product of the volume of lymph collected and the measured concentrations in lymph. For fluorescent or fluorescently-labelled compounds, the concentrations of total compound may be measured by fluorescence spectroscopy without hydrolysis.
Table 5 summarizes lymphatic transport of total tofacitinib related compound (% of administered dose) following intraduodenal infusion to anaesthetised, mesenteric lymph-duct cannulated rats. Data are presented as mean±SD when n≥3 or mean± range when n=2. […]

| In vitro hydrolysis: acid intermediates [1] | In vitro hydrolysis profile: acid intermediate ([2]; HPLC-MS) | SMILES | In vitro hydrolysis: conversion to monoglyceride form [1] | In vitro hydrolysis: fate of the monoglyceride [1] | In vitro hydrolysis profile: conversion to monoglyceride form [2] | In vitro hydrolysis profile: further conversion products [2] | Cumulative lymphatic transport % dose [3] |
| --- | --- | --- | --- | --- | --- | --- | --- |
| not observed | not observed | CCCCCCCCCCCCCCCC(=O)OCC(COC(=O)CCCCCCCCCCCCCCC)OC(=O)CC(C)CC(=O)OC(C)n1ccc2c(N(C)[C@H]3CN(C(=O)CC#N)CC[C@H]3C)ncnc21 (stereo partly drawn) [I-5, 1-(1,3-bis(palmitoyloxy)propan-2-yl) 5-(1-(4-(((3R,4R)-1-(2-cyanoacetyl)-4-methylpiperidin-3-yl)(methyl)amino)-7H-pyrrolo[2,3-d]pyrimidin-7-yl)ethyl) 3-methylpentanedioate] | rapidly converted to the prodrug's monoglyceride form | converted to free parent tofacitinib over time | rapidly converted into their monoglyceride form | further conversion to tofacitinib and an acid intermediate | D (lymphatic transport assay result of less than 0.05% (<0.05%)) |
| not observed |  | CCCCCCCCCCCCCCCC(=O)OCC(COC(=O)CCCCCCCCCCCCCCC)OC(=O)CC(C)CCCCCCCC(C)C(=O)n1ccc2c(N(C)[C@H]3CN(C(=O)CC#N)CC[C@H]3C)ncnc21 (stereo partly drawn) [I-6, 2-((12-(4-(((3R,4R)-1-(2-cyanoacetyl)-4-methylpiperidin-3-yl)(methyl)amino)-7H-pyrrolo[2,3-d]pyrimidin-7-yl)-3,11-dimethyl-12-oxododecanoyl)oxy)propane-1,3-diyl dipalmitate] | rapidly converted to the prodrug's monoglyceride form | converted to free parent tofacitinib over time | rapidly converted into their monoglyceride form | further conversion to tofacitinib and an acid intermediate | B (lymphatic transport assay result between 1% and 10% (1%-10%)) |

From patent US12594339B2, “Lipid prodrugs of JAK inhibitors and uses thereof” (Seaport Therapeutics, Inc., priority 2019, dated 2026)
